Legend:
HDAC 4 = target: T1, HDAC 4 (Homo sapiens, UniProt P56524); test: HDAC panel by Reaction Biology Corp., HDAC 4; type: biochemical; details: read-out: HDAC inhibitory activities, HDAC 4
T1 construct: Reaction Biology Corp
Text: (§1) The inhibitory activities of Compounds 255 and 374 on all HDACs were confirmed (by Reaction Biology Corp.).

HDAC 5 = target: T2, HDAC 5 (Homo sapiens, UniProt Q9UQL6); test: HDAC panel by Reaction Biology Corp., HDAC 5; type: biochemical; details: read-out: HDAC inhibitory activities, HDAC 5
T2 construct: Reaction Biology Corp
T2 sequence (Q9UQL6 whole entry): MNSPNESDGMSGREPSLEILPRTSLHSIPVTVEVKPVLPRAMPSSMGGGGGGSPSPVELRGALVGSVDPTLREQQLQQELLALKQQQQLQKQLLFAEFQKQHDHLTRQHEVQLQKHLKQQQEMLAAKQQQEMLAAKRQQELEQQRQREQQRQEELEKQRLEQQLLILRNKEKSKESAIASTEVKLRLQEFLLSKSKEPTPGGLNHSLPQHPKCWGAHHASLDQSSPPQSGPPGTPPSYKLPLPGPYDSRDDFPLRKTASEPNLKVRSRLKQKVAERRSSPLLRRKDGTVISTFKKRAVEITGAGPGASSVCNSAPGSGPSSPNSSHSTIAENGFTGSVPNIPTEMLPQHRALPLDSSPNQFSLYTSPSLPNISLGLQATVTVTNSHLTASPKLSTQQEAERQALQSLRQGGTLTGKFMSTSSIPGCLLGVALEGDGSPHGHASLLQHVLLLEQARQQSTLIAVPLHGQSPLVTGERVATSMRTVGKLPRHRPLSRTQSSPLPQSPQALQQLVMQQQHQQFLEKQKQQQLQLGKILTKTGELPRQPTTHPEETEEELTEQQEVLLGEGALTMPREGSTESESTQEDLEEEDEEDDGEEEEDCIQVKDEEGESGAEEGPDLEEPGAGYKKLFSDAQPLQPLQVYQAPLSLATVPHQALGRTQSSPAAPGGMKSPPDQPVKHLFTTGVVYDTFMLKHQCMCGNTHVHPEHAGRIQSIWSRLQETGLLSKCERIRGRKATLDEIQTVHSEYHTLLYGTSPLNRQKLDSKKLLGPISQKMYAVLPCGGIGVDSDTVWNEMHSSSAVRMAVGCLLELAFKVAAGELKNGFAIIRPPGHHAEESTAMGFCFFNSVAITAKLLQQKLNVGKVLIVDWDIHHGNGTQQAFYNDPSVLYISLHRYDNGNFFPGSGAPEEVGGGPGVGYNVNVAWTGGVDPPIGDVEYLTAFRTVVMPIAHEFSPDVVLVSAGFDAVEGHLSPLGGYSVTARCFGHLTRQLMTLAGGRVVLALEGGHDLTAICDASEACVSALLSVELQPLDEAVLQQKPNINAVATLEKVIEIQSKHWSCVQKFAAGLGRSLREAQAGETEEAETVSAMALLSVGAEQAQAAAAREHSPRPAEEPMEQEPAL
Text: as §1

HDAC 7 = target: T3, HDAC 7 (Homo sapiens, UniProt Q8WUI4); test: HDAC panel by Reaction Biology Corp., HDAC 7; type: biochemical; details: read-out: HDAC inhibitory activities, HDAC 7
T3 construct: Reaction Biology Corp
T3 sequence (Q8WUI4 1-952): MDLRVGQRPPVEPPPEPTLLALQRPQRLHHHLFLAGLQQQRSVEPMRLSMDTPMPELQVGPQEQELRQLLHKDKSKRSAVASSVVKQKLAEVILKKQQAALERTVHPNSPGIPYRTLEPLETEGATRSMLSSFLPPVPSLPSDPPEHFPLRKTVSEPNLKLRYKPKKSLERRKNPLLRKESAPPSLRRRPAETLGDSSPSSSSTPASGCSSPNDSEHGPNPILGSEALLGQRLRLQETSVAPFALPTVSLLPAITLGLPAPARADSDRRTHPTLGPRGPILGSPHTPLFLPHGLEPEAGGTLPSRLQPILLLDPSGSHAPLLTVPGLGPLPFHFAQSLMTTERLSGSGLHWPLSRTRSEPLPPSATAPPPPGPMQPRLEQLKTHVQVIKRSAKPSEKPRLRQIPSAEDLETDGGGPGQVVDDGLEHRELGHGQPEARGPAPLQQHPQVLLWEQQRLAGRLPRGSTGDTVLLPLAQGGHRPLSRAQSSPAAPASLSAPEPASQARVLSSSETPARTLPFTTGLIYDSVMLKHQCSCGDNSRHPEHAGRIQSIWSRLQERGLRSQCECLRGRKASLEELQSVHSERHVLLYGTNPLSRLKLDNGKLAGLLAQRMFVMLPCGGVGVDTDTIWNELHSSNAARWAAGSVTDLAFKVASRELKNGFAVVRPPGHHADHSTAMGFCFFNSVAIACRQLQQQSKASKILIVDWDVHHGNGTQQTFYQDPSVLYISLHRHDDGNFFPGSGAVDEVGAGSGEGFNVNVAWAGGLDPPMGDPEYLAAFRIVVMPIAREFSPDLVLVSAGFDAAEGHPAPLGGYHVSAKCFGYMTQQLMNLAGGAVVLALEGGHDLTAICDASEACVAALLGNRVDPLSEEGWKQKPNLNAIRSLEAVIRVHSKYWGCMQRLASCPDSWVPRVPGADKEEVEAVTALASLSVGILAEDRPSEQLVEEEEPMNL
Text: as §1

[1] = tested on: tubulin acetylation (HDAC6) in RPMI8226 cells; test: Acetylation of Tubulin in cells by Western blot; type: cell-based; details: for concentration at which tubulin acetylation (HDAC6) was expressed: 24 hours
Description: To determine the selectivity for HDAC6 in cells, the acetylation levels of Tubulin, Histone H3 and Histone H4 depending on the concentration of compounds were measured by Western blot.
RPMI8226 (1.0×10^6 cells/well) cells were seeded on six-well plates and treated with drugs (Compounds 255 and 374) at each concentration. After 24 hours, the proteins were extracted with RIPA buffer and quantified by the Bradford method. 25 μg of protein was lysed in sample buffer, electrophoresed on a 4-12% gradient gel, and then transferred to nitrocellulose membranes for 50 minutes. Then transferred protein was blocked with 5% skim milk for 1 hour. Anti-acetyl H3 (1:2,000), anti-acetyl H4 (1:5,000), anti-acetyl tubulin (1:5,000), and anti-β-actin antibody (1:10,000) were added into 5% skim milk, and the membranes were immersed in the skim milk, reacted at 4° C. for 16 hours, and then washed three times for 10 minutes each with 1×TBS-T. Then, IgG-HRP antibody (1:5,000) was added into 5% skim milk, and then the membranes were immersed in the skim milk, reacted at room temperature for 40 minutes, and then washed three times for […] each with 1×TBS-T. Then, the acetylation levels were determined with a LAS 3000 using ECL solution.
The acetylation of tubulin, histone H3 and Histone H4 on RPMI8226 cells (1.0×10^6 cells/well) derived from myeloma was determined in the same manner as the cell determination in Example 1.

colitis models = test: Colitis models (dextran sulfate sodium); type: in vivo, C57BL/6J mice; details: intraperitoneally twice a day after 8 days from supply of DSS; disease-induced models lost to 17.5 to 18 g
Description: 3.0% dextran sulfate sodium (DSS: MP biomedicals) was dissolved in deionized water and supplied to 9-week-old C57BL/6J mice for 5 to 7 days and then water was normally supplied to the mice to induce colitis in animal models. The experimental animals were classified into a solvent control group and each group treated with Compound 254 and Compound 255 as test materials based on the body weight of the experimental animals. The test material was intraperitoneally injected twice a day after 8 days from the supply of DSS. The evaluation of the efficacy in colitis models was made by determining the degree to which the weight, lost due to the disease, was recovered to normal level, and the results are shown in FIG. 6.

T1 sequence (P56524 whole entry): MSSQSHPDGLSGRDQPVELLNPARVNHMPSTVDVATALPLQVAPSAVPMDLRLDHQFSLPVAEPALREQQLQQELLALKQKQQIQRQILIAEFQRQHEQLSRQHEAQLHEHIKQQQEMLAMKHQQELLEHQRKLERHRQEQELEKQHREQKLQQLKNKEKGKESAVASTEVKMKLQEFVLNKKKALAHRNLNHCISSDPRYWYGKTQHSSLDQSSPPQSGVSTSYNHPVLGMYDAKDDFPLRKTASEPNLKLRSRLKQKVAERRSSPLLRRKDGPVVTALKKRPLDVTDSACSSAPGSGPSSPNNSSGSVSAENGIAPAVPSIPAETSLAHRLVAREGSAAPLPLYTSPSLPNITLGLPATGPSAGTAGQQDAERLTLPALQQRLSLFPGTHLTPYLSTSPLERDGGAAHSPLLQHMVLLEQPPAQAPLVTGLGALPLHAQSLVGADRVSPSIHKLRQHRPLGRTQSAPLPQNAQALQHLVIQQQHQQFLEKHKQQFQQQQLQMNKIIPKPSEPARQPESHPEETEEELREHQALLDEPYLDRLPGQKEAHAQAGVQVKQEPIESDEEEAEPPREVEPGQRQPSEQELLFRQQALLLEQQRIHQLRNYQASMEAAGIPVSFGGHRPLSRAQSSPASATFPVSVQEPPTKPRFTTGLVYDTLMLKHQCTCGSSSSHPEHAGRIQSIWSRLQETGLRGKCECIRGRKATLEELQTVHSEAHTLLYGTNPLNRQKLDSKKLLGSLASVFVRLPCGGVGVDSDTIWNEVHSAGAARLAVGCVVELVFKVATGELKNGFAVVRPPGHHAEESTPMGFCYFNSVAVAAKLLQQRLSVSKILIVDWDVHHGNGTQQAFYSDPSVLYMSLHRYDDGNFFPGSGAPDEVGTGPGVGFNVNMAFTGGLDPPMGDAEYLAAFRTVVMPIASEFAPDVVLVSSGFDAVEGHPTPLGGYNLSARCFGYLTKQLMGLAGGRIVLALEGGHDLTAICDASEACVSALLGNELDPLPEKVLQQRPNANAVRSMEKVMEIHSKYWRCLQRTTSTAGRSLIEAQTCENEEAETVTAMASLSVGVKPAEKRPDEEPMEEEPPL

Structure (SMILES) | IC50 (HDAC 4) [µM] | IC50 (HDAC 5) [µM] | IC50 (HDAC 7) [µM] | cell selectivity (tubulin versus histone acetylation) [1] | concentration at which tubulin acetylation (HDAC6) was expressed [1] | weight recovered to (colitis models) [g]
O=C(NO)c1ccc(CN(C(=O)N2CCOCC2)c2cccc(Br)c2)cc1 [Compound 255, N-(3-bromophenyl)-N-(4-(hydroxycarbamoyl)benzyl)morpholine-4-carboxamide] | 6.86 | 8.27 | 1.5 | excellent cell selectivity | about 10 nM | 19 to 19.5
O=C(NO)c1ccc(CN(C(=O)N2CCOCC2)c2cccc(C(F)(F)F)c2)cc1 [Compound 374, N-(4-(hydroxycarbamoyl)benzyl)-N-(3-(trifluoromethyl)phenyl)morpholine-4-carboxamide] | 16.4 |  | 5.25 | excellent cell selectivity | about 10 nM | 
